# Experiments:
# [1] = target: T1, human recombinant Aurora A (Homo sapiens, UniProt O14965); assay: Aurora A Kinase Biochemical Assay (ADP-Glo); settings: selectivity ratio; Aurora A 2.5 nM, 20 μM ATP
# T1 construct: purchased ThermoFisher PR5935A
# T1 sequence (O14965 1-403): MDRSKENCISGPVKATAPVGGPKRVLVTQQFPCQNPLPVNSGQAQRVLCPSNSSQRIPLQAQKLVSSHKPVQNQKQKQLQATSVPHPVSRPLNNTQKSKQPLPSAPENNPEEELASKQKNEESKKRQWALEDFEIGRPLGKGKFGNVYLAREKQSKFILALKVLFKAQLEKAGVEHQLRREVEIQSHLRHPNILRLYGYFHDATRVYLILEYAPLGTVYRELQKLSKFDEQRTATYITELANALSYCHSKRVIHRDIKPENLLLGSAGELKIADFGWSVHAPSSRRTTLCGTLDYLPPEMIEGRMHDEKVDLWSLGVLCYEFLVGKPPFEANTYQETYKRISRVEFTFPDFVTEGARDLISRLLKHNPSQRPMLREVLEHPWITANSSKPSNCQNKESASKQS
# Procedure: Activity of human recombinant Aurora A (ThermoFisher, cat #PR5935A) was measured by quantification of adenosine diphosphate (ADP) using the ADP-Glo Kinase Assay Kit (Promega, cat #V9102). Test compounds were solubilized in dimethyl sulfoxide (DMSO) and dispensed into 384-well white polystyrene nonbinding plates (Greiner, cat #781094) using the Echo acoustic dispenser (Labcyte Inc.) in a 11-point 3-fold titration in duplicates. 5 μL of 5.0 nM Aurora A in assay buffer (50 mM HEPES, pH 7.5, 0.01% Brij-35, 0.01% BSA, 10 mM MgCl2, 1 mM EGTA, 1 mM DTT) was added to the plates. Test compounds and Aurora A were incubated for 15 minutes at room temperature (RT). Then 5 μL of a 40 μM adenosine triphosphate (ATP) (Promega, cat #V915B) and 9.3 μM Myelin Basic Protein (MBP) (SignalChem, cat #M42-51N) substrate solution in assay buffer was added and the reaction mixture was incubated for 2 hours at RT. The final concentration of Aurora A, ATP and MBP in the reactions were 2.5 nM, 20 μM and 4.7 μM, respectively. Reactions were stopped and the remaining ATP depleted by adding 10 μL of ADP-Glo reagent (Promega, cat #V912B) and incubating for 40 minutes at RT. The simultaneous conversion of the remaining ADP to ATP and measurement of the newly synthesized ATP was achieved by addition of 20 μL Kinase Detection reagent (Promega, cat #V914B), incubation for 30 min at RT, and luminescence detection using the EnVision plate reader (PerkinElmer). Reactions lacking Aurora A were used as 100% inhibition controls. Reactions containing DMSO alone were used as 0% inhibition controls. The IC50 values reported in Table 2 were determined using four parameter non-linear regression curve fit.
# [2] = target: T2, human recombinant Aurora B (Homo sapiens, UniProt Q96GD4); assay: Aurora B Kinase Biochemical Assay (ADP-Glo); settings: selectivity ratio; Aurora B 10 nM, 114 μM ATP
# T2 construct: purchased ThermoFisher PR9210B
# Procedure: Activity of human recombinant Aurora B (ThermoFisher, cat #PR9210B) was measured by quantification of adenosine diphosphate (ADP) using the ADP-Glo Kinase Assay Kit (Promega, cat #V9102). Test compounds were solubilized in dimethyl sulfoxide (DMSO) and dispensed into 384-well white polystyrene nonbinding plates (Greiner, cat #781094) using the Echo acoustic dispenser (Labcyte Inc.) in a 11-point 3-fold titration in duplicates. 5 μL of 20 nM Aurora B in assay buffer (50 mM HEPES, pH 7.5, 0.01% Brij-35, 0.01% BSA, 10 mM MgCl2, 1 mM EGTA, 1 mM DTT) was added to the plates. Test compounds and Aurora B were incubated for 15 minutes at room temperature (RT). Then 5 μL of a 228 μM adenosine triphosphate (ATP) (Promega, cat #V915B) and 9.3 μM Myelin Basic Protein (MBP) (SignalChem, cat #M42-51N) substrate solution in assay buffer was added and the reaction mixture was incubated for 2 hours at RT. The final concentration of Aurora b, ATP and MBP in the reactions were 10 nM, 114 μM and 4.7 μM, respectively. Reactions were stopped and the remaining ATP depleted by adding 10 μL of ADP-Glo reagent (Promega, cat #V912B) and incubating for 40 minutes at RT. The simultaneous conversion of the remaining ADP to ATP and measurement of the newly synthesized ATP was achieved by addition of 20 μL Kinase Detection reagent (Promega, cat #V9141B), incubation for 30 min at RT, and luminescence detection using the EnVision plate reader (PerkinElmer). Reactions lacking Aurora B were used as […]. Reactions containing DMSO alone were used as […]. The IC50 values reported in Table 2 were determined using four parameter non-linear regression curve fit.
# T2 sequence (Q96GD4 whole entry): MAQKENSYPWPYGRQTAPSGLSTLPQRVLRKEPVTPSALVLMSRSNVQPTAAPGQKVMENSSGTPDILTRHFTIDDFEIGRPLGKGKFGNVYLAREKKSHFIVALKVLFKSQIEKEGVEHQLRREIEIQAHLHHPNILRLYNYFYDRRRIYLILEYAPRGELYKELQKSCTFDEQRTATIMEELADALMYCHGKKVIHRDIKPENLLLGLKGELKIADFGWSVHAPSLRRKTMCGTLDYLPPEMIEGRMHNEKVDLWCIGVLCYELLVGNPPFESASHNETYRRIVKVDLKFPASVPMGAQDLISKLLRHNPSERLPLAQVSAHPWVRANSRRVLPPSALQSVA
[Aurora A IC50 (nM)]/[PLK4 IC50 (nM)] [1],[Aurora B IC50 (nM)]/[PLK4 IC50 (nM)] [2],SMILES
2164,791.6196,"COc1ccc2c(c1)[C@]1(C[C@H]1c1ccc3c(Nc4cc5c(cc4OC)S(=O)(=O)CC5)n[nH]c3c1)C(=O)N2 [Example 1, 6-methoxy-5-({6-[(1R,2S)-5′-methoxy-2′-oxo-1′,2′-dihydrospiro[cyclopropane-1,3′-indol]-2-yl]-1H-indazol-3-yl}amino)-2,3-dihydro-1H-1-benzothiophene-1,1-dione]"
801.1462,229.2462,"COc1ccc2c(c1)[C@]1(C[C@H]1c1ccc3c(Nc4ccc(S(C)(=O)=O)cc4OC)n[nH]c3c1)C(=O)N2 [Example 2, (1R,2S)-2-{3-[4-(methanesulfonyl)-2-methoxyanilino]-1H-indazol-6-yl}-5′-methoxyspiro[cyclopropane-1,3′-indol]-2′(1′H)-one]"
1671.3768,256.2681,"COc1ccc2c(c1)[C@]1(C[C@H]1c1ccc3c(Nc4ccc(C(C)=O)cc4OC)n[nH]c3c1)C(=O)N2 [Example 3, (1R,2S)-2-[3-(4-acetyl-2-methoxyanilino)-1H-indazol-6-yl]-5′-methoxyspiro[cyclopropane-1,3′-indol]-2′(1′H)-one]"
538.2697,549.2668,"COc1ccc2c(c1)[C@]1(C[C@H]1c1ccc3c(Nc4nc(-c5ncco5)ccc4OC)n[nH]c3c1)C(=O)N2 [Example 4, (1R,2S)-5′-methoxy-2-(3-{[3-methoxy-6-(1,3-oxazol-2-yl)pyridin-2-yl]amino}-1H-indazol-6-yl)spiro[cyclopropane-1,3′-indol]-2′(1′H)-one]"
567.6936,238.2702,"CCS(=O)(=O)c1ccc(Nc2n[nH]c3cc([C@@H]4C[C@@]45C(=O)Nc4ccc(OC)cc45)ccc23)c(OC)c1 [Example 5, (1R,2S)-2-{3-[4-(ethanesulfonyl)-2-methoxyanilino]-1H-indazol-6-yl}-5′-methoxyspiro[cyclopropane-1,3′-indol]-2′(1′H)-one]"
581.0754,427.6412,"COc1ccc2c(c1)[C@]1(C[C@H]1c1ccc3c(Nc4cc5c(cc4OC)S(=O)(=O)C=C5)n[nH]c3c1)C(=O)N2 [Example 6, 6-methoxy-5-({6-[(1R,2S)-5′-methoxy-2′-oxo-1′,2′-dihydrospiro[cyclopropane-1,3′-indol]-2-yl]-1H-indazol-3-yl}amino)-1H-1-benzothiophene-1,1-dione]"
10956.01173,702.6392,"CCOc1cc(-c2cnccn2)ccc1Nc1n[nH]c2cc([C@@H]3C[C@@]34C(=O)Nc3ccc(OC)cc34)ccc12 [Example 7, (1R,2S)-2-{3-[2-ethoxy-4-(pyrazin-2-yl)anilino]-1H-indazol-6-yl}-5′-methoxyspiro[cyclopropane-1,3′-indol]-2′(1′H)-one]"
27382.2563,1829.1347,"CCOc1cc2ccccc2nc1Nc1n[nH]c2cc([C@@H]3C[C@@]34C(=O)Nc3ccc(OC)cc34)ccc12 [Example 8, (1R,2S)-2-{3-[(3-ethoxyquinolin-2-yl)amino]-1H-indazol-6-yl}-5′-methoxyspiro[cyclopropane-1,3′-indol]-2′(1′H)-one]"
2540.3949,396.7684,"CCOc1cc(-n2cncn2)ccc1Nc1n[nH]c2cc([C@@H]3C[C@@]34C(=O)Nc3ccc(OC)cc34)ccc12 [Example 10, (1R,2S)-2-{3-[2-ethoxy-4-(1H-1,2,4-triazol-1-yl)anilino]-1H-indazol-6-yl}-5′-methoxyspiro[cyclopropane-1,3′-indol]-2′(1′H)-one]"
897.6923,1051.5384,"COc1ccc2c(c1)[C@]1(C[C@H]1c1ccc3c(Nc4cc(-c5cnn(C)c5)ccc4OC)n[nH]c3c1)C(=O)N2 [Example 11, (1R,2S)-5′-methoxy-2-{3-[2-methoxy-5-(1-methyl-1H-pyrazol-4-yl)anilino]-1H-indazol-6-yl}spiro[cyclopropane-1,3′-indol]-2′(1′H)-one]"
630,810,"CCOc1cc2c(ccc[n+]2[O-])cc1Nc1n[nH]c2cc([C@@H]3C[C@@]34C(=O)Nc3ccc(OC)cc34)ccc12 [Example 12, 7-ethoxy-6-((6-((1R,2S)-5′-methoxy-2′-oxospiro[cyclopropane-1,3′-indolin]-2-yl)-1H-indazol-3-yl)amino)quinoline 1-oxide]"
414.8,1120.7692,"COc1ccc2c(c1)[C@]1(C[C@H]1c1ccc3c(Nc4cc(-c5ncco5)ccc4OC)n[nH]c3c1)C(=O)N2 [Example 13, (1R,2S)-5′-methoxy-2-{3-[2-methoxy-5-(1,3-oxazol-2-yl)anilino]-1H-indazol-6-yl}spiro[cyclopropane-1,3′-indol]-2′(1′H)-one]"
187.4804,897.1830,"COc1ccc2c(c1)[C@]1(C[C@H]1c1ccc3c(Nc4cc(-c5nccs5)ccc4OC)n[nH]c3c1)C(=O)N2 [Example 14, (1R,2S)-5′-methoxy-2-{3-[2-methoxy-5-(1,3-thiazol-2-yl)anilino]-1H-indazol-6-yl}spiro[cyclopropane-1,3′-indol]-2′(1′H)-one]"
146.5230,511.8461,"COc1ccc2c(c1)[C@]1(C[C@H]1c1ccc3c(Nc4cc(-c5cscn5)ccc4OC)n[nH]c3c1)C(=O)N2 [Example 15, (1R,2S)-5′-methoxy-2-{3-[2-methoxy-5-(1,3-thiazol-4-yl)anilino]-1H-indazol-6-yl}spiro[cyclopropane-1,3′-indol]-2′(1′H)-one]"
259.1,730.6487,"COc1ccc2c(c1)[C@]1(C[C@H]1c1ccc3c(Nc4cc(-c5cocn5)ccc4OC)n[nH]c3c1)C(=O)N2 [Example 16, (1R,2S)-5′-methoxy-2-{3-[2-methoxy-5-(1,3-oxazol-4-yl)anilino]-1H-indazol-6-yl}spiro[cyclopropane-1,3′-indol]-2′(1′H)-one]"
1000,190,"COc1ccc2c(c1)[C@]1(C[C@H]1c1ccc3c(Nc4ccc(-c5nnn(C)n5)cc4OC)n[nH]c3c1)C(=O)N2 [Example 17, (1R,2S)-5′-methoxy-2-{3-[2-methoxy-4-(2-methyl-2H-tetrazol-5-yl)anilino]-1H-indazol-6-yl}spiro[cyclopropane-1,3′-indol]-2′(1′H)-one]"
500,520,"COc1ccc2c(c1)[C@]1(C[C@H]1c1ccc3c(Nc4cc(-c5cnco5)ccc4OC)n[nH]c3c1)C(=O)N2 [Example 18, (1R,2S)-5′-methoxy-2-{3-[2-methoxy-5-(1,3-oxazol-5-yl)anilino]-1H-indazol-6-yl}spiro[cyclopropane-1,3′-indol]-2′(1′H)-one]"
